Laboratory results as given in US7101868B2, “Substituted arylamine derivatives and methods of use” (Amgen Inc., priority 2001, dated 2006).

test system: VEGF-stimulated HUVEC proliferation (Human Umbilical Vein Endothelial cells); experiment: HUVEC Proliferation Assay; format: cell-based; conditions: VEGF 50 ng/mL final, 72 h incubation, CyQuant fluorescent dye, read-out: inhibited VEGF-stimulated HUVEC proliferation at a level (IC50)
Experimental: Human Umbilical Vein Endothelial cells are purchased from Clonetics, Inc., as cryopreserved cells harvested from a pool of donors. These cells, at passage 1, are thawed and expanded in EBM-2 complete medium, until passage 2 or 3. The cells are trypsinized, washed in DMEM+10% FBS+antibiotics, and spun at 1000 rpm for 10 min. Prior to centrifugation of the cells, a small amount is collected for a cell count. After centrifugation, the medium is discarded, and the cells are resuspended in the appropriate volume of DMEM+10% FBS+antibiotics to achieve a concentration of 3×10^5 cells/mL. Another cell count is performed to confirm the cell concentration. The cells are diluted to 3×10^4 cells/mL in DMEM+10% FBS+antibiotics, and 100 μL of cells are added to a 96-well plate. The cells are incubated at 37° C. for 22 h.
Prior to the completion of the incubation period, compound dilutions are prepared. Five-point, five-fold serial dilutions are prepared in DMSO, at concentrations 400-fold greater than the final concentrations desired. 2.5 μL of each compound dilution are diluted further in a total of 1 mL DMEM+10% FBS+antibiotics (400× dilution). Medium containing 0.25% DMSO is also prepared for the 0 μM compound sample. At the 22-hour timepoint, the medium is removed from the cells, and 100 μL of each compound dilution is added. The cells are incubated at 37° C. for 2-3 h.
During the compound pre-incubation period, the growth factors are diluted to the appropriate concentrations. Solutions of DMEM+10% FBS+antibiotics, containing either VEGF or bFGF at the following concentrations: 50, 10, 2, 0.4, 0.08, and 0 ng/mL are prepared. For the compound-treated cells, solutions of VEGF at 550 ng/mL or bFGF at 220 ng/mL for 50 ng/mL or 20 ng/mL final concentrations, respectively, are prepared since 10 μL of each will be added to the cells (110 μL final volume). At the appropriate time after adding the compounds, the growth factors are added. VEGF is added to one set of plates, while bFGF is added to another set of plates. For the growth factor control curves, the media on wells B4-G6 of plates 1 and 2 are replaced with media containing VEGF or bFGF at the varying concentrations (50-0 ng/mL). The cells are incubated at 37° C. for an additional 72 h.
At the completion of the 72 h incubation period, the medium is removed, and the cells are washed twice with PBS. After the second wash with PBS, the plates are tapped gently to remove excess PBS, and the cells are placed at −70° C. for at least 30 min. The cells are thawed and analyzed using the CyQuant fluorescent dye (Molecular Probes C-7026), following the manufacturer's recommendations. The plates are read on a Victor/Wallac 1420 workstation at 485 nm/530 nm (excitation/emission). Raw data are collected and analyzed using a 4-parameter fit equation in XLFit. IC50 values are then determined.

With `CCC(C)c1ccc(NC(=O)c2cccnc2NCc2ccc(F)cc2)cc1` (centres unmarked) [Example 16, N-(4-sec-butylphenyl)-2-[(4-fluorobenzyl)amino]nicotinamide] as the compound, how does the IC50 read?
Its IC50 is under 50 nM.

How did the IC50 turn out when `CC(C)(C)c1ccc(NC(=O)c2cccnc2NCc2ccc(F)cc2)cc1` [Example 17, N-(4-tert-Butylphenyl)-2-[(4-fluorobenzyl)amino]nicotinamide] was run?
Its IC50 is under 50 nM.

With `CC(C)c1ccc(NC(=O)c2cccnc2NCc2ccc(F)cc2)cc1` [Example 20, (2-{[(4-Fluorophenyl)methyl]amino}(3-pyridyl))-N-[4-(methylethyl)phenyl]carboxamide] as the compound, how does the IC50 read?
Its IC50 is under 50 nM.

For `O=C(Nc1cccc(C(F)(F)F)c1)c1cccnc1NCc1ccc(F)cc1` [Example 21, (2-{[(4-Fluorophenyl)methyl]amino}(3-pyridyl))-N-[3-(trifluoromethyl)phenyl]carboxamide], which IC50 is on record?
The IC50 was under 50 nM.

Which IC50 does the source give for `O=C(Nc1cccc(C(F)(F)F)c1)c1cccnc1NCc1ccc(Br)cc1` [Example 25, (2-{[(4-Bromophenyl)methyl]amino}(3-pyridyl))-N-[3-(trifluoromethyl)phenyl]carboxamide] here?
The IC50 was under 50 nM.

With `O=C(Nc1cccc(C(F)(F)F)c1)c1cccnc1NCc1ccc(Cl)cc1` [Example 26, (2-{[(4-Chlorophenyl)methyl]amino}(3-pyridyl))-N-[3-(trifluoromethyl)phenyl]carboxamide] as the compound, how does the IC50 read?
The IC50 was under 50 nM.

`O=C(Nc1cccc(C(F)(F)F)c1)c1cccnc1NCc1ccc(F)cc1F` [Example 27, (2-{[(2,4-Difluorophenyl)methyl]amino}(3-pyridyl))-N-[3-(trifluoromethyl)phenyl]carboxamide] was tested. Which IC50 did it give?
The IC50 was under 50 nM.

For `O=C(Nc1cccc(C(F)(F)F)c1)c1cccnc1NCc1ccc(F)c(F)c1` [Example 29, (2-{[(3,4-Difluorophenyl)methyl]amino}(3-pyridyl))-N-[3-(trifluoromethyl)phenyl]carboxamide], which IC50 is on record?
The IC50 was under 50 nM.

`O=C(Nc1ccc(C(F)(F)F)cc1)c1cccnc1NCc1ccc(F)cc1` [Example 34, (2-{[(4-Fluorophenyl)methyl]amino}(3-pyridyl))-N-(4-(trifluoromethyl)phenyl]carboxamide] was tested. Which IC50 did it give?
Its IC50 is under 50 nM.

For `CN(C)CCCc1cc(NC(=O)c2cccnc2NCc2ccc(F)cc2)cc(C(F)(F)F)c1` [Example 35, N-{3-[3-(Dimethylamino)propyl]-5-(trifluoromethyl)phenyl}(2-{[(4-fluorophenyl)methyl]amino}(3-pyridyl))carboxamide], which IC50 is on record?
The IC50 was under 50 nM.

With `CN1CC=C(c2cc(NC(=O)c3cccnc3NCc3ccc(F)cc3)ccc2C(C)(C)C)CC1` [Example 39] as the compound, how does the IC50 read?
Its IC50 is under 50 nM.

How did the IC50 turn out when `O=C(Nc1cccc(C(F)(F)F)c1)c1cccnc1NCc1ccc(F)c(C#CCN2CCOCC2)c1` [Example 40, [2-({[4-Fluoro-3-(3-morpholin-4-ylprop-1-ynyl)phenyl]methyl}amino)(3-pyridyl)]-N-[3-(trifluoromethyl)phenyl]carboxamide] was run?
The IC50 was under 50 nM.

How did the IC50 turn out when `O=C(Nc1ccc(Oc2ccccc2)cc1)c1cccnc1NCc1ccc2c(c1)OCO2` [Example 41, {2-[(2H-Benzo[d]1,3-dioxol-5-ylmethyl)amino](3-pyridyl)}-N-(4-phenoxyphenyl)carboxamide] was run?
Its IC50 is under 50 nM.

`O=C(Nc1ccc(C(F)(F)F)c(OCCN2CCCC2)c1)c1cccnc1NCc1ccc(F)cc1` [Example 42, 2-(4-Fluoro-benzylamino)-N-[3-(2-pyrrolidin-1-yl-ethoxy)-4-trifluoromethyl-phenyl]-nicotinamide] was tested. Which IC50 did it give?
The IC50 was under 50 nM.

`CN1CCC(N2CC(C)(C)c3ccc(NC(=O)c4cccnc4NCc4ccc(F)cc4)cc32)CC1` [Example 45, N-[3,3-Dimethyl-1-(1-methyl-piperidin-4-yl)-2,3-dihydro-1H-indol-6-yl]-2-(4-fluoro-benzylamino)-nicotinamide] was tested. Which IC50 did it give?
The IC50 was under 50 nM.

With `CN(C)CC(=O)N1CC(C)(C)c2ccc(NC(=O)c3cccnc3NCc3ccc(F)cc3)cc21` [Example 46, N-[1-(2-Dimethylamino-acetyl)-3,3-dimethyl-2,3-dihydro-1H-indol-6-yl]-2-(4-fluoro-benzylamino)-nicotinamide] as the compound, how does the IC50 read?
The IC50 was under 50 nM.

With `CC(=O)N1CC(C)(C)Oc2ccc(NC(=O)c3cccnc3NCc3ccc(F)cc3)cc21` [Example 52, N-(4-Acetyl-2,2-dimethyl-3,4-dihydro-2H-benzo[1,4]oxazin-6-yl)-2-(4-fluoro-benzylamino)-nicotinamide] as the compound, how does the IC50 read?
Its IC50 is under 50 nM.

Which IC50 does the source give for `O=C(Nc1ccc(C(F)(F)C(F)(F)F)c(OC[C@H]2CCCN2)c1)c1cccnc1NCc1ccc(F)cc1` [Example 54, (R) 2-(4-Fluoro-benzylamino)-N-[3-(pyrrolidin-2-ylmethoxy)-4-pentafluoroethyl-phenyl]-nicotinamide] here?
The IC50 was under 50 nM.

`O=C(Nc1cc(OC[C@H]2CCCN2)cc(C(F)(F)F)c1)c1cccnc1NCc1ccc(F)cc1` [Example 55, (R) 2-(4-Fluoro-benzylamino)-N-[3-(pyrrolidin-2-ylmethoxy)-5-trifluoromethyl-phenyl]-nicotinamide] was tested. Which IC50 did it give?
The IC50 was under 50 nM.

`CC(C)(C)c1ccc(NC(=O)c2cccnc2NCc2ccc(F)cc2)cc1OCC1CCNCC1` [Example 56, N-[4-tert-Butyl-3-(piperidin-4-ylmethoxy)-phenyl]-2-(4-fluoro-benzylamino)-nicotinamide] was tested. Which IC50 did it give?
Its IC50 is under 50 nM.

With `CC(C)(C)c1ccc(NC(=O)c2cccnc2NCc2ccc(F)cc2)cc1OC[C@H]1CCCN1` [Example 57, (R) N-[4-tert-Butyl-3-(pyrrolidin-2-ylmethoxy)-phenyl]-2-(4-fluoro-benzylamino)-nicotinamide] as the compound, how does the IC50 read?
The IC50 was under 50 nM.

For `CC1(C)CNCc2cc(NC(=O)c3cccnc3NCc3ccc(F)cc3)ccc21` [Example 58, N-(4,4-Dimethyl-1,2,3,4-tetrahydro-isoquinolin-7-yl)-2-(4-fluoro-benzylamino)-nicotinamide], which IC50 is on record?
Its IC50 is under 50 nM.

`CC1(C)CN(C(=O)CN)c2cc(NC(=O)c3cccnc3NCc3ccc(F)cc3)ccc21` [Example 59, N-[1-(2-Amino-acetyl)-3,3-dimethyl-2,3-dihydro-1H-indol-6-yl]-2-(4-fluoro-benzylamino)-nicotinamide] was tested. Which IC50 did it give?
Its IC50 is under 50 nM.

How did the IC50 turn out when `CC1(C)CN(C2CCNCC2)c2cc(NC(=O)c3cccnc3NCc3ccc(F)cc3)ccc21` [Example 60, N-(3,3-Dimethyl-1-piperidin-4-yl-2,3-dihydro-1H-indol-6-yl)-2-(4-fluoro-benzylamino)-nicotinamide] was run?
Its IC50 is under 50 nM.

How did the IC50 turn out when `O=C(Nc1cc(OCC2CCNCC2)cc(C(F)(F)F)c1)c1cccnc1NCc1ccc(F)cc1` [Example 61, 2-(4-Fluoro-benzylamino)-N-[3-(piperidin-4-ylmethoxy)-5-trifluoromethyl-phenyl]-nicotinamide] was run?
The IC50 was under 50 nM.

For `CC1(C)CNc2cc(NC(=O)c3cccnc3NCc3ccc(F)cc3)ccc2O1` [Example 62, N-(2,2-Dimethyl-3,4-dihydro-2H-benzo[1,4]oxazin-6-yl)-2-(4-fluoro-benzylamino)-nicotinamide], which IC50 is on record?
The IC50 was under 50 nM.

`CN1CCC[C@H]1COc1cc(NC(=O)c2cccnc2NCc2ccc(F)cc2)cc(C(F)(F)F)c1` [Example 63, (S)-2-(4-Fluoro-benzylamino)-N-[3-(1-methyl-pyrrolidin-2-ylmethoxy)-5-trifluoromethyl-phenyl]-nicotinamide] was tested. Which IC50 did it give?
The IC50 was under 50 nM.

With `CN1CCC(CN2CC(C)(C)c3ccc(NC(=O)c4cccnc4NCc4ccc(F)cc4)cc32)CC1` [Example 64, N-[3,3-Dimethyl-1-(1-methyl-piperidin-4-ylmethyl)-2,3-dihydro-1H-indol-6-yl]-2-(4-fluoro-benzylamino)-nicotinamide] as the compound, how does the IC50 read?
Its IC50 is under 50 nM.

How did the IC50 turn out when `CN1CCC(C(C)(C)c2ccc(NC(=O)c3cccnc3NCc3ccc(F)cc3)cc2)CC1` [Example 65, 2-(4-Fluoro-benzylamino)-N-{4-[1-methyl-1-(1-methyl-piperidin-4-yl)-ethyl]-phenyl}-nicotinamide] was run?
Its IC50 is under 50 nM.
